This passage reports inhibition results from patent US20070191227A1, “Use of basic amino acids in copper-containing fungicidal formulations” (priority 2003, published 2007).

SMILES strings stand for the structures.

The subject of the assay is Septoria tritici. Kind of assay: Growth assay with Septoria tritici as indicator fungus (photometric). In kind it is cell-based. To be noted: Zymoseptoria tritici; active ingredient concentration 1 ppm, individual active ingredient. As to the method: Efficacy of Formulations According to the Invention Comprising Copper and a Further Fungicidal Active Ingredient Against Septoria tritici.
A growth assay was carried out with Septoria tritici as indicator fungus. The fungal growth was measured photometrically by the increase in absorption or light scattering as a function of mycelium density. The data were converted into percent growth inhibition, the absorption of the untreated controls being defined as 0% inhibition and that of a killed spore suspension as reference as 100% inhibition.
The expected efficacies of combinations of active ingredients were determined using Colby's formula (Colby, S. R. “Calculating synergistic and antagonistic responses of herbicide combinations”, Weeds, 15, pp. 20-22, 1967) and compared with the observed efficacies.
Colby's formula: E=x+y−x·y/100 • E expected efficacy, expressed in % of the untreated control, when using the mixture of the active ingredients A and B at the concentrations a and b • x efficacy, expressed in % of the untreated control, when using the active ingredient A at the concentration a
y efficacy, expressed in % of the untreated control, when using the active ingredient B at the concentration b

With `COC(=O)N(OC)c1ccccc1COc1ccn(-c2ccc(Cl)cc2)n1` [II, Pyraclostrobin], the inhibition (commonly the relative decrease from the control value, in per cent) at 1 ppm was 73%.
